Laboratory results as given in patent US20160002299A1, “NON-IMMUNOSUPPRESSIVE CYCLOSPORIN DERIVATIVES AS ANTIVIRAL AGENTS” (UCL BUSINESS PLC, priority 2013, published 2016).

Columns and labels:
HIV-1 [1] = experiment: Single round HIV-1 infection of monocyte derived macrophages; format: cell-based; settings: MDM at MOI of 0.1-1, in the presence of Compound 1, FIG. 4
Protocol: (§1) Primary monocyte-derived macrophages (MDM) were prepared from fresh blood from healthy volunteers. Peripheral blood mononuclear cells were isolated by Ficoll-Hypaque (Axis-Shield) density centrifugation. The isolated cells were washed with PBS and plated in RPMI (Invitrogen) supplemented with 10% heat-inactivated autologous human serum (HS) and 40 ng/ml macrophage colony stimulating factor (M-CSF) (R&D systems). The medium was then refreshed after 3 days (RPMI 1640 with 10% HS), removing any remaining non-adherent cells. After 6 days, media was replenished with
(§2) RPMI containing 5% type AB HS (Sigma-Aldrich-Aldrich). Replicate experiments were performed with cells derived from different donors.
(§3) Virus particles were produced by transient transfection of HEK293T cells. 3.5 μg of molecular clone DNA; NL4.3 Bal was transfected using Fugene 6 transfection reagent (Promega). Virus supernatants were harvested 48 hr, 72 hr and 96 hr post transfection. […] All virus preparations were quantified by reverse transcriptase (RT) enzyme linked immunosorbant assay (ELISA) (Roche). […]
(§4) Institute of Biological Standards AIDS Reagents Programme) and a secondary antibody linked to beta galactosidase. […] Cells were stained for Gag p24 at specific time points after infection and infected colonies counted. […]

IFN-β = IFN-β ELISA of supernatants of HIV-1 infected monocyte derived macrophages; format: cell-based, human; settings: HIV-1 infected MDM, 10 μM Compound 1, supernatants, FIG. 3
Protocol: as §1, §2, §3, §4

HIV-1 [2] = experiment: HIV-1 replication in monocyte derived macrophages (Gag p24 staining, infected cells counted); format: cell-based; settings: primary MDM, NL4.3 Bal, MOI 0.2, 10 μM Compound 1 vs DMSO control, FIG. 2
Protocol: as §1, §2, §3, §4

C/C=C/C[C@@H](C)[C@@H](O)[C@H]1C(=O)N[C@@H](CC)C(=O)N(C)[C@H](Cc2ccc(C(=O)O)cc2)C(=O)N(C)[C@@H](CC(C)C)C(=O)N[C@@H](C(C)C)C(=O)N(C)[C@@H](CC(C)C)C(=O)N[C@@H](C)C(=O)N[C@H](C)C(=O)N(C)[C@@H](CC(C)C)C(=O)N(C)[C@@H](CC(C)C)C(=O)N(C)[C@@H](C(C)C)C(=O)N1C [Compound 1]
infection lower after single round infection (HIV-1 [1]): 5-7 fold
production of IFN-β (IFN-β): elicited the production of IFN-β
HIV-1 replication (number of infected cells) (HIV-1 [2]): completely suppressed HIV-1 replication
